# Results published in publication PMC9650711, “Hydroxyl-Rich Hydrophilic Endocytosis-Promoting Peptide with No Positive Charge” (Journal of the American Chemical Society, 2022).
# Numbered stars: 1 amine (or outer) side, 2 acyl side, 3 side chain; on linkers, the order of the positions; unused ones are H or OH. Bridge positions count the residues as written; N and C are the ends. Square brackets hold non-standard residues; d marks the D form. Triazole bridges read from a SMILES are 1,4-linked. Peptide text beside a SMILES is read from it. * marks the point of attachment. RhodamineB = CCN(CC)c1ccc2c(-c3ccccc3C(=O)*)c3ccc(=[N+](CC)CC)cc-3oc2c1; Lys(N3) = [N-]=[N+]=NCCCC[C@H](N)C(=O)O; NMeGABA = CN(CCCC(=O)[*:2])[*:1]; Pra = C#CC[C@H](N)C(=O)O
# Assays:
# [1] = test system: U87 cells; experiment: Cell viability by YOYO staining, flow cytometry; type: cell-based, human; settings: RB-EPP6 20 nM to 100 μM
# Experimental: Confocal imaging experiments
# To image the cells, a Zeiss 880 inverted confocal laser scanning microscope (Carl Zeiss, Germany) was used. Image acquisition and analyses were carried out using the manufacturer’s software (ZEN, Carl Zeiss). Quantification of fluorescence intensity in single cells was performed using Fiji […]
# Flow cytometry experiments
# To perform flow cytometry experiments, a NovoCyte flow cytometer (NovoExpress) was used.
# Quantification of fluorescence intensity was achieved using the Novoxpress software. Fifty thousand cells were analyzed for each condition. A green fluorescent dye used for DNA staining, YOYO, was included in all the flow cytometry experiments, serving as a cell live/dead indicator.
# […]
# 2 μL of RB-EPP (in DMSO) was added to the solution at a concentration of 500 μM. […] Samples were collected from both phases and quantified by Analytical HPLC separately. […]
# [2] = target: T1, full-length FIBCD1 (Homo sapiens, UniProt Q8N539); experiment: Fluorescence polarization (FP) assay; type: binding; settings: RB conjugates 50 nM, 1% BSA/PBST, room temperature 30 min, Hill fit; recombinant full-length FIBCD1 from CHO cells
# T1 construct: We overexpressed full-length FIBCD1 in CHO cells, extracted and purified the protein; host or cells: ExpiCHO (CHO) cells
# T1 sequence (Q8N539 1-461): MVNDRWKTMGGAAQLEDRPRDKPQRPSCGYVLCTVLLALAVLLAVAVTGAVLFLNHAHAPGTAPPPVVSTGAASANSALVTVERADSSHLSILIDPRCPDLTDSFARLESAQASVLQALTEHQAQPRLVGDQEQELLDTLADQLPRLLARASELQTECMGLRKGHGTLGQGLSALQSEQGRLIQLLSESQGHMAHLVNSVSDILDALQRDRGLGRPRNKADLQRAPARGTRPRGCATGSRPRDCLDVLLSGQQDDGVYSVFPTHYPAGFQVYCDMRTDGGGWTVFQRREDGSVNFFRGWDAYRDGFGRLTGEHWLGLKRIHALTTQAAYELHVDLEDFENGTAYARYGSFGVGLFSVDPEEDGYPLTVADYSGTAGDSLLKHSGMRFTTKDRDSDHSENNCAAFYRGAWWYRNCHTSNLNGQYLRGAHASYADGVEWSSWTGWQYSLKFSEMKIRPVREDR
# Experimental: experiment. Poly-A selective RNA-seq libraries were prepared using the NEB NextUltra II kit (New England Biolabs) and sequenced on an Illumina NextSeq500 with 2×75 pair-end reads. The obtained sequencing data was preprocessed using fastp, aligned using STAR, and counted using featureCounts. Differentially expressed genes were identified using DESeq2. The sequence data and analysis reports are deposited in the GEO repository (Accession # GSE202764) […]
# U87 cells were incubated with 500 nM RB-EPP6 and YOYO, together with chondroitin sulfate (CSA) in complete media. After 1 h, trypsin was used to detach the cells. Cell pellets were collected by centrifugation. Fresh phenol-free medium was added to each condition. […]
# Human FIBCD1 cDNA with an MYC-DDK tag was ordered from Origene (#RC206180) and was expressed using the mammalian expression system kit ExpiCHOTM (#A29133) as generally described by MAN0014337. […] The obtained full-length FIBCD1 was quantified using BCA.
# Fluorescence polarization (FP) assay
# Solutions of RB-EPPs (in 1% BSA/PBST) were added to different concentrations of full-length FIBCD1 (in 1% BSA/PBST). […] The solutions were incubated at room temperature for 30 minutes on an orbital shaker, and the fluorescence polarization values were quantified using a BioTek Synergy H1 plate reader, with an FP filter set (excitation 530/25, emission 590/35). […]
# [3] = test system: MDCK cell monolayers; type: in vitro ADME, canine
# Experimental: FIBCD1 Lentiviral target, at different multiplicities of infection (MOI) levels. The cells were then incubated at 37 °C and 5% CO2. After 48 hours, the media was removed and replaced with fresh new media. Cell selection was carried out using G418 (Alfa Aesar) at 1 mg/mL for 7 days, and the surviving cells were collected and analyzed for FIBCD-KO efficiency by western blot. The best candidate was used for the RB-EPP6 uptake experiments described above.
# 200k MDCK cells were seeded in 200 μL of complete media in the apical side transwell insert (12-well 8 μm pore size Transwell-65 mm). In addition, 1 mL of complete growth media is added to the basolateral chamber. Six transwell inserts were prepared for a TAT peptide labeled with RB (RB-[…]), and six other inserts were prepared for RB-EPP6. The plate was incubated for 2-3 days at 37 °C with 5% CO2. The electrical resistance of the MDCK transwell inserts was measured using the EVOM Epithelial Voltohmmeter to monitor the integrity of tight junctions for the following two days. On day 3, serum-free media was used to wash both the apical (200 μL) and basolateral (1 mL) wells three times. […]
# The assay was carried out in apical to basolateral directions. […] After that, 80 μL of the samples were collected from each chamber for RB fluorescence intensity reading using a Synergy […]
# [4] = test system: zebrafish larvae; experiment: Biodistribution in zebrafish larvae, fluorescence microscopy; type: in vivo; settings: larvae 6 dpf, 1 h incubation; compared with free rhodamine dye and RB-GSQTH control
# [5] = test system: Caco2; experiment: RB-EPP6 uptake in Caco2 cells; type: cell-based; settings: RB conjugate
compound,measurement,setting,value
"CCN(CC)c1ccc2c(-c3ccccc3C(=O)N(C)CCCC(=O)N[C@H]3Cc4cn(nn4)CCCC[C@@H](C(N)=O)NC(=O)[C@H](CO)NC(=O)[C@H](Cc4ccc(O)cc4)NC(=O)[C@H](Cc4ccc(O)cc4)NC(=O)[C@H](CO)NC(=O)[C@H](Cc4ccc(O)cc4)NC3=O)c3ccc(=[N+](CC)CC)cc-3oc2c1 [RB-EPP6, RB-cy(YSYYS)] (RhodamineB-[NMeGABA][Pra]YSYYS[Lys(N3)]-NH2; triazole 2-8)",effect on cell viability,[1],without affecting cell viability
same,Kd,[2],~200 nM
same,Papp,[3],5.25 × 10^–6
same,Papp compared with RB-TAT47–57,[3],more than twice
same,tissue accumulation in zebrafish larvae,[4],preferentially accumulated in the olfactory pit and neuromasts
same,uptake in Caco2 cells,[5],did not exhibit EPP6 uptake
